Key:
Assay type in all cases: in vivo
[1] = tested on: Plutella xylostella (Diamond Back Moth); test: Example B3: Activity against Plutella xylostella (diamond back moth), artificial diet; conditions: 192 h, application rate 200 ppm, eggs on artificial diet, 8 days after infestation, read-out: effect in at least one of the two categories (mortality or growth inhibition)
Method: Example B3: Activity Against Plutella xylostella (Diamond Back Moth)
24-well microtiter plates with artificial diet were treated with aqueous test solutions prepared from 10′000 ppm DMSO stock solutions by pipetting. After drying, Plutella eggs were pipetted through a plastic stencil onto a gel blotting paper and the plate was closed with it. The samples were assessed for mortality and growth inhibition in comparison to untreated samples 8 days after infestation. The following compounds gave an effect of at least 80% in at least one of the two categories (mortality or growth inhibition) at an application rate of 200 ppm: P2, P4, P5, P6, P8, P9, P10, P11, P12, P14, P15, P16, P17, P18, P19, P20, P21, P22, P23, P24, P25, P26, P27, P28, P29, P30, P31, P32, P33, P34, P35, P36, P38, P39, P40, P42, P45, P46, P47, P49, P50, P51, P52.

[2] = tested on: Euschistus heros (Neotropical Brown Stink Bug); test: Example B2: Activity against Euschistus heros (neotropical brown stink bug), sprayed soybean leaves; conditions: 120 h, application rate 200 ppm, N2 nymphs on sprayed soybean leaves, 5 days after infestation, read-out: effect in at least one of the two categories (mortality or growth inhibition)
Method: Example B2: Activity Against Euschistus heros (Neotropical Brown Stink Bug)
Soybean leaves on agar in 24-well microtiter plates were sprayed with aqueous test solutions prepared from 10′000 ppm DMSO stock solutions. After drying the leaves were infested with N2 nymphs. The samples were assessed for mortality and growth inhibition in comparison to untreated samples 5 days after infestation.

[3] = tested on: Myzus persicae (Green Peach Aphid); test: whole plant or invertebrate; conditions: foliar, 144 h, application rate 200 ppm, sprayed sunflower leaf discs, mixed ages, 6 days after infestation
Method: Example B4: Activity Against Myzus persicae (Green Peach Aphid) Feeding/Contact Activity
Sunflower leaf discs were placed onto agar in a 24-well microtiter plate and sprayed with aqueous test solutions prepared from 10′000 ppm DMSO stock solutions. After drying, the leaf discs were infested with an aphid population of mixed ages. The samples were assessed for mortality 6 days after infestation.

[4] = tested on: Diabrotica balteata (Corn Root Worm); test: Example B1: Activity against Diabrotica balteata (corn root worm), sprayed maize sprouts; conditions: 96 h, application rate 200 ppm, L2 larvae on sprayed maize sprouts, 4 days after infestation, read-out: effect in at least one of the two categories (mortality or growth inhibition)
Method: Example B1: Activity Against Diabrotica balteata (Corn Root Worm)
Maize sprouts placed onto an agar layer in 24-well microtiter plates were treated with aqueous test solutions prepared from 10′000 ppm DMSO stock solutions by spraying. After drying, the plates were infested with L2 larvae (6 to 10 per well). The samples were assessed for mortality and growth inhibition in comparison to untreated samples 4 days after infestation.

[5] = tested on: Spodoptera littoralis (Egyptian Cotton Leaf Worm); test: Example B6: Activity against Spodoptera littoralis (Egyptian cotton leaf worm); conditions: foliar, 72 h, application rate 200 ppm, L1 larvae on sprayed cotton leaf discs, 3 days after infestation, read-out: control (mortality, anti-feeding effect or growth inhibition)
Method: Example B6: Activity Against Spodoptera littoralis (Egyptian Cotton Leaf Worm)
Cotton leaf discs were placed onto agar in 24-well microtiter plates and sprayed with aqueous test solutions prepared from 10′000 ppm DMSO stock solutions. After drying the leaf discs were infested with five L1 larvae. The samples were assessed for mortality, anti-feeding effect, and growth inhibition in comparison to untreated samples 3 days after infestation. Control of Spodoptera littoralis by a test sample is given when at least one of the categories mortality, anti-feedant effect, and growth inhibition is higher than the untreated sample.

CCS(=O)(=O)c1ccc(-n2cncn2)nc1-c1cc2ncn(CC(F)(F)C(F)(F)F)c2cn1 [Compound P32, 6-[3-ethylsulfonyl-6-(1,2,4-triazol-1-yl)-2-pyridyl]-3-(2,2,3,3,3-pentafluoropropyl)imidazo[4,5-c]pyridine]
≥ 80%: percent effect (mortality or growth inhibition) at 200 ppm [1] | percent effect (mortality or growth inhibition) at 200 ppm [2] | mortality at 200 ppm [3] | percent effect (mortality or growth inhibition) at 200 ppm [4]

CCS(=O)(=O)c1cc(-n2ccc(Cl)n2)cnc1-c1cc2cnn(CC(F)(F)C(F)(F)F)c2cn1 [Compound P46, 5-[5-(3-chloropyrazol-1-yl)-3-ethylsulfonyl-2-pyridyl]-1-(2,2,3,3,3-pentafluoropropyl) pyrazolo[3,4-c]pyridine]
≥ 80%: percent effect (mortality or growth inhibition) at 200 ppm [1] | percent control (mortality, anti-feedant effect or growth inhibition) at 200 ppm [5] | percent effect (mortality or growth inhibition) at 200 ppm [2] | mortality at 200 ppm [3] | percent effect (mortality or growth inhibition) at 200 ppm [4]

CCS(=O)(=O)c1ccc(NC)nc1-c1cc2ccn(CC(F)(F)C(F)(F)F)c2cn1 [Compound P24, 5-ethylsulfonyl-N-methyl-6-[1-(2,2,3,3,3-pentafluoropropyl)pyrrolo[2,3-c]pyridin-5-yl]pyridin-2-amine]
≥ 80%: percent effect (mortality or growth inhibition) at 200 ppm [1] | percent control (mortality, anti-feedant effect or growth inhibition) at 200 ppm [5] | percent effect (mortality or growth inhibition) at 200 ppm [2] | mortality at 200 ppm [3] | percent effect (mortality or growth inhibition) at 200 ppm [4]

CCS(=O)(=O)c1ccc(NC)nc1-c1cc2cnn(CC(F)(F)C(F)(F)F)c2cn1 [Compound P14, 5-ethylsulfonyl-N-methyl-6-[1-(2,2,3,3,3-pentafluoropropyl)pyrazolo[3,4-c]pyridin-5-yl]pyridin-2-amine]
≥ 80%: percent effect (mortality or growth inhibition) at 200 ppm [1] | percent control (mortality, anti-feedant effect or growth inhibition) at 200 ppm [5] | percent effect (mortality or growth inhibition) at 200 ppm [2] | mortality at 200 ppm [3] | percent effect (mortality or growth inhibition) at 200 ppm [4]

CCS(=O)(=O)c1cc(Oc2ccccn2)cnc1-c1cc2cnn(CC(F)(F)C(F)(F)F)c2cn1 [Compound P21]
≥ 80%: percent effect (mortality or growth inhibition) at 200 ppm [1] | percent control (mortality, anti-feedant effect or growth inhibition) at 200 ppm [5] | percent effect (mortality or growth inhibition) at 200 ppm [2] | mortality at 200 ppm [3] | percent effect (mortality or growth inhibition) at 200 ppm [4]

CCS(=O)(=O)c1ccc(N2CCOC2=O)nc1-c1cc2cnn(CC(F)(F)C(F)(F)F)c2cn1 [Compound P27, 3-[5-ethylsulfonyl-6-[1-(2,2,3,3,3-pentafluoropropyl)pyrazolo[3,4-c]pyridin-5-yl]-2-pyridyl]oxazolidin-2-one]
≥ 80%: percent effect (mortality or growth inhibition) at 200 ppm [1] | percent control (mortality, anti-feedant effect or growth inhibition) at 200 ppm [5] | mortality at 200 ppm [3]

CCS(=O)(=O)c1ccc(N(C)C(=O)C2CC2)nc1-c1cc2cnn(CC(F)(F)C(F)(F)F)c2cn1 [Compound P15, N-[5-ethylsulfonyl-6-[1-(2,2,3,3,3-pentafluoropropyl)pyrazolo[3,4-c]pyridin-5-yl]-2-pyridyl]-N-methyl-cyclopropane-carboxamide]
≥ 80%: percent effect (mortality or growth inhibition) at 200 ppm [1] | percent control (mortality, anti-feedant effect or growth inhibition) at 200 ppm [5] | percent effect (mortality or growth inhibition) at 200 ppm [2] | mortality at 200 ppm [3] | percent effect (mortality or growth inhibition) at 200 ppm [4]

CCS(=O)(=O)c1ccc(-n2cncn2)nc1-c1cc2cnn(CC(F)(F)C(F)(F)F)c2cn1 [Compound P22, 5-[3-ethylsulfonyl-6-(1,2,4-triazol-1-yl)-2-pyridyl]-1-(2,2,3,3,3-pentafluoropropyl) pyrazolo[3,4-c] pyridine]
≥ 80%: percent effect (mortality or growth inhibition) at 200 ppm [1] | percent control (mortality, anti-feedant effect or growth inhibition) at 200 ppm [5] | percent effect (mortality or growth inhibition) at 200 ppm [2] | mortality at 200 ppm [3] | percent effect (mortality or growth inhibition) at 200 ppm [4]

CCS(=O)(=O)c1cc(Oc2ccccn2)cnc1-c1cc2ccn(CC(F)(F)C(F)(F)F)c2cn1 [Compound P17, 5-[3-ethylsulfonyl-5-(2-pyridyloxy)-2-pyridyl]-1-(2,2,3,3,3-pentafluoropropyl) pyrrolo[2,3-c]pyridine]
≥ 80%: percent effect (mortality or growth inhibition) at 200 ppm [1] | percent control (mortality, anti-feedant effect or growth inhibition) at 200 ppm [5] | percent effect (mortality or growth inhibition) at 200 ppm [2] | mortality at 200 ppm [3] | percent effect (mortality or growth inhibition) at 200 ppm [4]

CCS(=O)(=O)c1ccc(N(C)C(=O)NC)nc1-c1cc2cnn(CC(F)(F)C(F)(F)F)c2cn1 [Compound P33, 1-[5-ethylsulfonyl-6-[1-(2,2,3,3,3-pentafluoropropyl)pyrazolo[3,4-c]pyridin-5-yl]-2-pyridyl]-1,3-dimethyl-urea]
≥ 80%: percent effect (mortality or growth inhibition) at 200 ppm [1] | percent control (mortality, anti-feedant effect or growth inhibition) at 200 ppm [5] | percent effect (mortality or growth inhibition) at 200 ppm [2] | mortality at 200 ppm [3] | percent effect (mortality or growth inhibition) at 200 ppm [4]

CCS(=O)(=O)c1cccnc1-c1cc2ccn(CC(F)(F)C(F)(F)F)c2cn1 [Compound P8, 5-(3-ethylsulfonyl-2-pyridyl)-1-(2,2,3,3,3-pentafluoropropyl) pyrrolo[2,3-c]pyridine]
≥ 80%: percent effect (mortality or growth inhibition) at 200 ppm [1] | percent control (mortality, anti-feedant effect or growth inhibition) at 200 ppm [5] | percent effect (mortality or growth inhibition) at 200 ppm [2] | mortality at 200 ppm [3] | percent effect (mortality or growth inhibition) at 200 ppm [4]

CC[S+]([O-])c1cccnc1-c1cc2ccn(CC(F)(F)C(F)(F)F)c2cn1 (stereo not drawn) [Compound P7, 5-(3-ethylsulfinyl-2-pyridyl)-1-(2,2,3,3,3-pentafluoropropyl) pyrrolo[2,3-c]pyridine]
≥ 80%: mortality at 200 ppm [3] | percent effect (mortality or growth inhibition) at 200 ppm [4]

CCSc1cc(C2(C#N)CC2)cnc1-c1cc2ncn(CC(F)(F)C(F)(F)F)c2cn1 [Compound P38, 1-[5-ethylsulfanyl-6-[3-(2,2,3,3,3-pentafluoropropyl)imidazo[4,5-c]pyridin-6-yl]-3-pyridyl] cyclopropane-carbonitrile]
≥ 80%: percent effect (mortality or growth inhibition) at 200 ppm [1] | percent control (mortality, anti-feedant effect or growth inhibition) at 200 ppm [5] | percent effect (mortality or growth inhibition) at 200 ppm [2] | percent effect (mortality or growth inhibition) at 200 ppm [4]

CCS(=O)(=O)c1cc(C2(C#N)CC2)cnc1-c1cc2ccn(CC(F)(F)C(F)(F)F)c2cn1 [Compound P23, 1-[5-ethylsulfonyl-6-[1-(2,2,3,3,3-pentafluoropropyl)pyrrolo[2,3-c]pyridin-5-yl]-3-pyridyl] cyclopropane-carbonitrile]
≥ 80%: percent effect (mortality or growth inhibition) at 200 ppm [1] | percent control (mortality, anti-feedant effect or growth inhibition) at 200 ppm [5] | percent effect (mortality or growth inhibition) at 200 ppm [2] | mortality at 200 ppm [3] | percent effect (mortality or growth inhibition) at 200 ppm [4]

From patent US20220132852A1, “PESTICIDALLY ACTIVE HETEROCYCLIC DERIVATIVES WITH SULFUR CONTAINING SUBSTITUENTS” (SYNGENTA CROP PROTECTION AG, priority 2019, published 2022)
